Laboratory results reported in patent US20210113522A1, “COUMARIN DERIVATIVE AS ANTI-ASTHMATIC AGENT, PHARMACEUTICAL COMPOSITION THEREOF, ITS PREPARATION AND USE” (I-NOVA MEDICINSKA ISTRAZIVANJA D.O.O., priority 2017, published 2021).

Tested on: croton oil-induced ear edema
Test: Croton oil-induced ear edema in mice
Format: in vivo, Balb/c mice
Conditions: dexamethasone 1 mg/kg, 1 2 mg/kg
Source text: The presents study aims to detect the inflammatory/anti-inflammatory potential effects of compound 1 in a model of acute skin inflammation induced by local application of phlogistic agent croton oil in Balb/c mice. The technique for croton oil-induced ear edema in mice, originally described by Tubaro et al., was followed, with modifications; see literature references 16 and 17: • 16) A. Tubaro, P. Dri, G. Delbello, C. Zilli, R. Della Loggia: The croton oil ear test revisited, Agents Actions 17 (1986) 347-349. • 17) G. Coruzzi, C. Pozzoli, M. Adami, D. Grandi, N. Guido, R. Smits, I. de Esch and R. Leurs: Strain-dependent effects of the histamine H4 receptor antagonist JNJ7777120 in a murine model of acute skin inflammation, Experimental Dermatology 21 (2011) 32-37.
Mice (total 40) were separated into 4 groups (n=10). Each group was treated under different regimen:
Cutaneous inflammation was induced in conscious mice by topical application of croton oil (5% in acetone).
Six hours after croton oil application, mice were euthanized by light ether anaesthesia, followed by cervical dislocation; both left (acetone) and right (croton oil in acetone) ears were removed, by cutting horizontally across the indentation at the base of the ear. For each mouse, the extent of the oedema was expressed as the difference in weight (Δ [mg]) between right (inflamed) and left (uninflamed) ear. The percentage increase in the oedema of the treated ear was calculated by the following formula: […]
The presents study aims to detect the inflammatory/anti-inflammatory potential effects of compound 1 in a model of acute skin inflammation induced by local application of phlogistic agent croton oil in Balb/c mice. The technique for croton oil-induced ear edema in mice, originally described by Tubaro et al., was followed, with modifications; see literature references 16 and 17.
In preliminary experiments, the effect of subcutaneous (s.c.) administration of saline, 100% DMSO or 20% 2-hydroxypropyl-β-cyclodextrin was investigated to check the vehicle effects on ear inflammation.
The statistical significance between the groups was assessed by one-way analysis of variance (ANOVA) followed by a post hoc Tukey test. The accepted level of significance for the test was P<0.05. All tests were carried out using GraphPad Software (San Diego, Calif., USA).

SMILES: C[C@@H]1C[C@H]2[C@@H]3CCC4=CC(=O)C=C[C@]4(C)[C@@]3(F)[C@@H](O)C[C@]2(C)[C@@]1(O)C(=O)CO [dexamethasone, reference compound]
- Percentage of increasing the ear edema (6 h after croton oil): 44.2%
- Maximal inhibition of croton oil-induced ear oedema (Balb/c mice, 6 h): approximately 60%
- Left ear m (left ear: 80% 2HPβCD + 20% DMSO (uninflamed), 6 h): 0.0360 g
- Right ear m (right ear: substance + croton oil after 30 min, 6 h): 0.0519 g
